The term IC50 denotes the concentration needed to halve the response being measured.

This note sets out measurements from paper PMC6323793 (BMC Cancer, 2019).

Like-named read-outs stand apart in the source and are kept apart here.

One assay addresses T1, recombinant human Cdc25A (Homo sapiens, UniProt P30304).
T1 construct: purchased CycLex CY-1352
T1 sequence (P30304 1-524): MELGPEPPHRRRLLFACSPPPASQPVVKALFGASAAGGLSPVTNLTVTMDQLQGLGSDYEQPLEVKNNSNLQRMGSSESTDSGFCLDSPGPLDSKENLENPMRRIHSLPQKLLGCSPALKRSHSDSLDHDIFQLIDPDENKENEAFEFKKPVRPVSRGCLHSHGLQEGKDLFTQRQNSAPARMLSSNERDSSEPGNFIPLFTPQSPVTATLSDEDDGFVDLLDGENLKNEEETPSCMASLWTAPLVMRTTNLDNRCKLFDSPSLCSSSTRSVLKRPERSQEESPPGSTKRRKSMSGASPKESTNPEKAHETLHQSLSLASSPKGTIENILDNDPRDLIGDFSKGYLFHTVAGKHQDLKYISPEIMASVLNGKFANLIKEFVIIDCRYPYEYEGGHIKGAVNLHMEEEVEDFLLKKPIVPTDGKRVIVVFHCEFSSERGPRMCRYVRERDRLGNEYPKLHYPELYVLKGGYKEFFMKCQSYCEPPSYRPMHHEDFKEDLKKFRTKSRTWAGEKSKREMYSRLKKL
The experiment in a line: Cdc25A fluorometric phosphatase assay (OMFP substrate). It is filed as biochemical. As for the experimental part: (§1) In summary, dual-specificity phosphatase activity was measured in a 96-well microtiter plate using O-methylfluorescein phosphate (OMFP) as a substrate. 5 μL (0.1 μg/μL) of purified recombinant Cdc25s (Cdc25A, -B and -C) was mixed with 40 μL of assay mixture and incubated with 5 μL of the test compound at various concentrations in a well. Then, 25 μL of stop solution was added. […] Menadione is a quinone-type inhibitor of Cdc25s that was used as a positive control here.

The target in a further assay is T2, recombinant human Cdc25B (Homo sapiens, UniProt P30305).
T2 construct: purchased CycLex CY-1353
T2 sequence (P30305 1-580): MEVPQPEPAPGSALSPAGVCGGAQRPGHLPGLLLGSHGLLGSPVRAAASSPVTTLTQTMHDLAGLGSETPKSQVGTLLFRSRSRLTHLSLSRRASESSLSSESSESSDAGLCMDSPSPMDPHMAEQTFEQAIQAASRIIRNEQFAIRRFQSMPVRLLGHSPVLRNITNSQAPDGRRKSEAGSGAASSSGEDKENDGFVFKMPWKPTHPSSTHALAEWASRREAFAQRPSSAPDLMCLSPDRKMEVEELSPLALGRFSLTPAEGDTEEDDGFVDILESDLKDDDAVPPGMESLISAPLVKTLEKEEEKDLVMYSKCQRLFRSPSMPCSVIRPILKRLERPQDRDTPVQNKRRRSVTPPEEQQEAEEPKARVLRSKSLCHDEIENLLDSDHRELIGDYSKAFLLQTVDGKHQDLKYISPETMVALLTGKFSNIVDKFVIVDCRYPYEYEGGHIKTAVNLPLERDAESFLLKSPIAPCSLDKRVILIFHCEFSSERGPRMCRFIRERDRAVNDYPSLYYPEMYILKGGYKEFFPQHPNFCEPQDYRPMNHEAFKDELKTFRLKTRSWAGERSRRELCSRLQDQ
The experiment in a line: Cdc25B fluorometric phosphatase assay (OMFP substrate). The class given is biochemical. The method, then:
Then, 25 μL of stop solution was added. Fluorescence was measured at an excitation wavelength of 485 nm and an emission wavelength of 530 nm using a fluorescence microplate reader (BioTek Instruments, Inc., Winooski, VT, USA). Menadione is a quinone-type inhibitor of Cdc25s that was used as a positive control here.

The target in the next assay is T3, recombinant human Cdc25C (Homo sapiens, UniProt P30307).
T3 construct: purchased CycLex CY-1354
T3 sequence (P30307 1-473): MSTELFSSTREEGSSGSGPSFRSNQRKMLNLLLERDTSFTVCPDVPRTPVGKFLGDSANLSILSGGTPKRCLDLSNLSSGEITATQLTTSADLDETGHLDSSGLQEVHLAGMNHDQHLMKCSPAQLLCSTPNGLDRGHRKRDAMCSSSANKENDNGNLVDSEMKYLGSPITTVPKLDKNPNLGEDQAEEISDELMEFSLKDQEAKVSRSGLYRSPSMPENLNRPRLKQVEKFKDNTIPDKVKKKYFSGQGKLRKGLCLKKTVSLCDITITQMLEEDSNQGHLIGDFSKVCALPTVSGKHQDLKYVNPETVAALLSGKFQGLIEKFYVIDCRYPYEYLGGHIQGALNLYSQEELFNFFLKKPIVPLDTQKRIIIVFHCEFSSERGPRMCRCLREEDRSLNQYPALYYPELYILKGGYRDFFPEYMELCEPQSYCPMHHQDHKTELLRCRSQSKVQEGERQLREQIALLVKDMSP
The experiment in a line: Cdc25C fluorometric phosphatase assay (OMFP substrate). It is filed as biochemical. As for the experimental part:
as §1

The subject of a further assay is HeLa cells. The experiment in a line: MTT anti-proliferation assay, HeLa. The settings on record: Homo sapiens, 48 h, read-out: IC50 HeLa. (Tetrazolium dyes change colour on reduction, which living cells bring about.)
Assay [1] relates to MCF-7 cells. The experiment in a line: MTT anti-proliferation assay, MCF-7. As to conditions: Homo sapiens, MCF7, 48 h, read-out: IC50 MCF-7.
The test system of assay [2] is tsFT210 cells. The experiment in a line: MTT anti-proliferation assay, tsFT210. As to conditions: Mus musculus, tsFT210, 48 h, read-out: IC50 tsFT210.
Assay [3] deals with tsFT210 cells. The experiment in a line: Cell cycle analysis by flow cytometry. It is filed as cell-based, mouse. As to conditions: synchronized tsFT210 cells released at 32 °C, treated for 6 h. As for the experimental part:
Cell cycle analysis was performed as described previously. […]. The harvested cells were stained with staining buffer (50 μg/ml propidium iodide, 0.1% sodium citrate and 0.2% NP-40) and analysed by Flow Cytometry (BD Biosciences). A final concentration of 0.5% DMSO was used for all compounds and as a negative control. Nocodazole, a potent mitotic blocker that arrests cells at the G2/M phase, was used as a positive control at a concentration of 100 nM.

Assay [4] has as its system MCF-7 cells. The experiment in a line: Intracellular ROS assay (DCFH-DA) in MCF-7 cells. It is filed as cell-based. The settings on record: 5 μM and 25 μM, 4 h, compared with control cells. As for the experimental part:
(§2) Reactive oxygen species (ROS) were detected with the fluorescent probe 2′,7′-dichlorofluorescin diacetate (DCFH-DA) as described by others. Briefly, MCF-7 cells or tsFT210 (synchronized at G2 phase) cells were plated in 96-well plates and loaded with 20 μM DCFH-DA for 30 min at 37 °C in culture medium. […] Untreated cells were used as control. Fluorescence was measured using a fluorescence microplate reader (BioTek Instruments, excitation wavelength: 485 nm, emission wavelength: 528 nm). The ROS levels were expressed as RFU (relative fluorescence unit).

Assay [5] concerns tsFT210 cells. The experiment in a line: Intracellular ROS assay (DCFH-DA) in tsFT210 cells. It is filed as cell-based, mouse. The settings on record: tsFT210 cells synchronized at G2 phase, 5 μM and 25 μM, 4 h, compared with control cells. As for the experimental part: as §2
Assay [6] deals with CDK1 (tyrosine 15 phosphorylation) in tsFT210 cells. The experiment in a line: Western blot of CDK1 phosphorylation status in cells. It is filed as cell-based, mouse. The settings on record: cells in G2/M phase, 1 μM, 5 μM and 25 μM, 4 h. As for the experimental part: (§3) The phosphorylation status of CDK1 was analysed by Western blotting as described in our previous work. […] The protein concentration in cell lysates was confirmed by the Bradford method. Fifty micrograms of protein per lane was resolved on 10% SDS polyacrylamide gels, and the bands were transferred to PVDF membranes (Millipore). Nonspecific reactivity was blocked by 5% non-fat milk prepared in TBST (10 mM Tris, 150 mM NaCl, 0.05% Tween-20, pH 7.5) at room temperature for 1 h. The protein signals were captured with primary antibodies and the secondary antibodies according to the manufacturers’ instructions. In this process, the protein β-actin was used to normalize target protein. All antibodies used in this paper were purchased from Cell Signaling Technology (Inc, China).
A general note: In western blotting, separated proteins are transferred to a membrane and probed.

The subject of another assay is K562 xenograft tumour. The experiment in a line: K562 xenograph tumour model in mice. It is filed as in vivo, mouse. The method, then: (§4) The mouse model was constructed according to our previous work. Balb/c mice (female, 5 weeks old), purchased from Shanghai SLAC Laboratory Animal Co., LTD (Shanghai, China), were subcutaneously injected into a 100 μL K562 cell suspension (5 × 10^6/mL, PBS) in the right flank of mice. […] The long and short dimensions of tumour size were measured by a digital calliper at days 1, 4, 8, 11, 16, 21, and 24 after treatment. The volume was calculated with the formula (long dimension) × (short dimension)^2/2. The mice were euthanized 2 days after the last treatment by the method of cervical dislocation.

Assay [7] has as its system phosphorylated CDK1 in primary tumour tissues. The experiment in a line: Phosphorylated CDK1 in tumour tissue of K562-bearing mice. It is filed as in vivo, mouse. The settings on record: especially the 5 and 10 mg/kg groups, vs control group. The method, then:
as §3, §4

Another assay has as its system K562 cells. The experiment in a line: MTT anti-proliferation assay, K562. As to conditions: Homo sapiens, K562, 48 h, read-out: IC50 K562.
[8] abbreviates: recombinant human phosphatase, OMFP substrate, mean ± S.E.M., read-out: IC50 Cdc25A.
The mark [9] stands for this setting: recombinant human phosphatase, OMFP substrate, mean ± S.E.M., read-out: IC50 Cdc25C.
Where [10] appears, read: recombinant human phosphatase, OMFP substrate, mean ± S.E.M., read-out: IC50 Cdc25B.

`CC(=O)O[C@H](CC=C(C)C)C1=CC(=O)c2c(O)ccc(O)c2C1=O` [Acetylshikonin]: the IC50 turned out to be 3.92 ± 0.66 µM on recombinant human Cdc25A, 3.87 ± 0.68 µM on recombinant human Cdc25B and 4.67 ± 0.34 µM at recombinant human Cdc25C.

With `CC(C)=CCCC1=CC(=O)c2c(O)ccc(O)c2C1=O` [Deoxyshikonin], the results for the IC50 on recombinant human Cdc25A, on recombinant human Cdc25B and on recombinant human Cdc25C were 3.22 ± 0.76 µM, 7.32 ± 0.45 µM and 6.33 ± 0.65 µM, respectively.

On to `COc1cccc2c1C(=O)c1c(O)c3c(c(O)c1C2=O)C[C@@](O)(C(=O)CO)C[C@@H]3O[C@H]1C[C@H](N)[C@H](O)[C@H](C)O1` [Doxorubicin, reference compound], for which the figures for the IC50 with HeLa cells, with MCF-7 cells [1] and in the assay with tsFT210 cells [2] were 0.43 ± 0.06 µM, 0.28 ± 0.03 µM and 0.56 ± 0.14 µM, respectively.

Consider `CC(C)=CC[C@@H](OC(=O)C(C)C)C1=CC(=O)c2c(O)ccc(O)c2C1=O` [Isobutylshikonin], for which the IC50 turned out to be 6.79 ± 1.02 µM on recombinant human Cdc25A (setting [8]) and 5.89 ± 0.43 µM on recombinant human Cdc25C (setting [9]).

On to `CC(C)=CCC(OC(=O)CC(C)C)C1=CC(=O)c2c(O)ccc(O)c2C1=O` (centres unmarked) [Isovalerylshikonin], for which the IC50 worked out at 9.53 ± 0.78 µM at recombinant human Cdc25A (setting [8]) and 11 ± 0.97 µM on recombinant human Cdc25C (setting [9]).

Consider `COC(=O)Nc1nc2ccc(C(=O)c3cccs3)cc2[nH]1` [Nocodazole, reference compound], for which the “Effect on cell cycle progression” value in the assay with tsFT210 cells [3] was “arrested the cells at the G2/M phase”.

As for `CC(C)=CC[C@@H](O)C1=CC(=O)c2c(O)ccc(O)c2C1=O` [Shikonin], the IC50 is 2.14 ± 0.21 µM on recombinant human Cdc25A; 4.78 ± 0.18 µM on recombinant human Cdc25C; 9.56 ± 1.03 µM in the assay on HeLa cells; 6.15 ± 0.46 µM with K562 cells; 6.82 ± 0.76 µM in the assay with MCF-7 cells [1]; 8.97 ± 0.87 µM in the assay with tsFT210 cells [2]. Further, the “Intracellular ROS” value in the assay with MCF-7 cells [4] and with tsFT210 cells [5] was “increased significantly” throughout. For the same compound, the “Effect on cell cycle progression” value with tsFT210 cells [3] is given as “blocked at the G2/M phase in a concentration-dependent manner”. The “Phosphorylation status of CDK1 (Western blot)” value in assay [6] was “induced an accumulation of the tyrosine 15-phosphorylated form of CDK1”. In addition, in the assay with K562 xenograft tumour (K562-bearing mice, 1, 5, or 10 mg/kg every other day, 21 days, vs vehicle), the Tumour growth result is “concentration-dependently inhibited tumour growth”. Further, in the assay with K562 xenograft tumour (K562-bearing mice, 1, 5, or 10 mg/kg, vs control group), the “Survival (Kaplan-Meier)” value is recorded as “prolonged”. The “Protein levels of phosphorylated CDK1 in primary tumour tissues” value in assay [7] was “significantly increased”.

Turning to `CC1=CC(=O)c2ccccc2C1=O` [menadione, reference compound], the IC50 at recombinant human Cdc25A was found to be 4.12 ± 0.87 µM; on recombinant human Cdc25B it was 5.37 ± 0.45 µM; on recombinant human Cdc25C it was 5.13 ± 0.24 µM.

`CCC(C)C(=O)O[C@H](CC=C(C)C)C1=CC(=O)c2c(O)ccc(O)c2C1=O` (stereo partly drawn) [α-Methyl-η-butylshikonin]: the values for the IC50 on recombinant human Cdc25A (setting [8]), on recombinant human Cdc25B (setting [10]) and at recombinant human Cdc25C (setting [9]) were 11.2 ± 1.45 µM, 14.3 ± 1.27 µM and 13.5 ± 1.45 µM, respectively.

For the compound `CC(C)=CCC(OC(=O)C=C(C)C)C1=CC(=O)c2c(O)ccc(O)c2C1=O` (stereo not drawn) [β,β-Dimethylacrylshikonin], the IC50 at recombinant human Cdc25A (setting [8]) worked out at 4.67 ± 0.85 µM; on recombinant human Cdc25B (setting [10]), 8.56 ± 0.67 µM.
